{"source": "ChEMBL document CHEMBL5365420", "about": "“Kinetics, Thermodynamics, and Structural Effects of Quinoline-2-Carboxylates, Zinc-Binding Inhibitors of New Delhi Metallo-β-lactamase-1 Re-sensitizing Multidrug-Resistant Bacteria for Carbapenems” (J Med Chem, 2023)", "key": {"[1]": {"molecular_target": "T1, 72 kDa type IV collagenase (Homo sapiens, UniProt P08253)", "assay": "Inhibition of human recombinant MMP-2 CD using OMNIMMP as substrate incubated for 30 mins by fluorescence based analysis"}, "[2]": {"assay": "Inhibition of IMP-1 (unknown origin) expressed in Escherichia coli BL21-DE3 incubated for 15 mins by absorbance based microplate reader analysis", "parameters": "species or system Bacteria"}, "[3]": {"molecular_target": "T1, 72 kDa type IV collagenase", "assay": "Inhibition of human recombinant MMP-2 CD at 10 uM using OMNIMMP as substrate incubated for 30 mins by fluorescence based analysis relative to control"}, "[4]": {"assay": "Inhibition of VIM-2 (unknown origin) incubated for 15 mins by absorbance based microplate reader analysis", "parameters": "species or system Bacteria"}, "[5]": {"assay": "Inhibition of GIM1 (unknown origin) incubated for 15 mins by absorbance based microplate reader analysis", "parameters": "species or system Bacteria"}, "[6]": {"molecular_target": "Histone deacetylase 1 (Homo sapiens) (UniProt Q13547)", "sequence (Q13547 whole entry)": "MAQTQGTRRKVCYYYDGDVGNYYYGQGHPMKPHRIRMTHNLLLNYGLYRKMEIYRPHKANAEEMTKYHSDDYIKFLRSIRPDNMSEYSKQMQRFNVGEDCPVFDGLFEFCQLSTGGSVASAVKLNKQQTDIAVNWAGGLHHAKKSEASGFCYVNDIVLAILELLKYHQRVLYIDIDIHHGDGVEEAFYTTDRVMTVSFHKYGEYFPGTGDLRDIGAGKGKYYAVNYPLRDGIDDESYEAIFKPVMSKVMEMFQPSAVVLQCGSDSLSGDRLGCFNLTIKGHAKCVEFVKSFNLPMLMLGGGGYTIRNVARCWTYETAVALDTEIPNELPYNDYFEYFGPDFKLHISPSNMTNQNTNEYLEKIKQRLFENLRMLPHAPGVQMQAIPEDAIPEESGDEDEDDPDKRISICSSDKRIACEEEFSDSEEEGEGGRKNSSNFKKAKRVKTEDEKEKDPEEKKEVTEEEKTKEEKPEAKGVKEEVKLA", "assay": "Inhibition of C-terminal 6His/FLAG-tagged human recombinant full-length HDAC1 (1 to 482(end) residues) at 10 uM using Boc-Lys-(Ac)-AMC as substrate incubated for 10 mins followed by substrate addition measured after 1 hr by fluorescence based analysis relative to control", "conditions": "time 70.0 min"}, "[7]": {"molecular_target": "Carbonic anhydrase 2 (Homo sapiens) (UniProt P00918)", "assay": "Inhibition of human CA2 at 10 uM using pNPA as substrate preincubated for 15 mins followed by substrate by absorbance based analysis relative to control"}, "[8]": {"molecular_target": "T1, 72 kDa type IV collagenase", "assay": "Binding affinity to human recombinant MMP-2 CD assessed as inhibition constant using OMNIMMP as substrate incubated for 30 mins by fluorescence based analysis"}, "[9]": {"test_system": "Escherichia coli", "assay": "Antibacterial activity against clinical isolate Escherichia coli K12 J53-ST10 684/18 expressing blaNDM-1 co-expressing blaCMY-2 and blaOXA-10 assessed as meropenem MIC at 29.60 uM measured after 20 hrs by broth microdilution assay (reference value: 12 mg/L)", "type": "functional", "conditions": "dose 29.6 µM"}, "[10]": {"test_system": "Escherichia coli", "assay": "Antibacterial activity against clinical isolate Escherichia coli K12 J53-ST10 684/18 expressing blaNDM-1 co-expressing blaCMY-2 and blaOXA-10 assessed as meropenem MIC at 59.20 uM measured after 20 hrs by broth microdilution assay (reference value: 24 mg/L)", "type": "functional", "conditions": "dose 59.2 µM"}, "[11]": {"test_system": "Escherichia coli", "assay": "Antibacterial activity against clinical isolate Escherichia coli K12 J53-ST10 696/17 expressing blaNDM-1 co-expressing blaCMY-4 assessed as meropenem MIC at 29.60 uM measured after 20 hrs by broth microdilution assay (reference value: 12 mg/L)", "type": "functional", "conditions": "dose 29.6 µM"}, "[12]": {"test_system": "Escherichia coli", "assay": "Antibacterial activity against clinical isolate Escherichia coli K12 J53-ST10 696/17 expressing blaNDM-1 co-expressing blaCMY-4 assessed as meropenem MIC at 59.20 uM measured after 20 hrs by broth microdilution assay (reference value: 24 mg/L)", "type": "functional", "conditions": "dose 59.2 µM"}, "[13]": {"test_system": "Escherichia coli", "assay": "Antibacterial activity against clinical isolate Escherichia coli K12 J53-ST10 618/15 expressing blaNDM-1 assessed as meropenem MIC at 29.60 uM measured after 20 hrs by broth microdilution assay (reference value: 12 mg/L)", "type": "functional", "conditions": "dose 29.6 µM"}, "[14]": {"test_system": "Escherichia coli", "assay": "Antibacterial activity against clinical isolate Escherichia coli K12 J53-ST10 618/15 expressing blaNDM-1 assessed as meropenem MIC at 59.20 uM measured after 20 hrs by broth microdilution assay (reference value: 24 mg/L)", "type": "functional", "conditions": "dose 59.2 µM"}, "[15]": {"test_system": "Escherichia coli", "assay": "Antibacterial activity against clinical isolate Escherichia coli K12 J53-ST10 699/15 expressing blaNDM-1 assessed as meropenem MIC at 29.60 uM measured after 20 hrs by broth microdilution assay (reference value: 12 mg/L)", "type": "functional", "conditions": "dose 29.6 µM"}, "[16]": {"test_system": "Escherichia coli", "assay": "Antibacterial activity against clinical isolate Escherichia coli K12 J53-ST10 699/15 expressing blaNDM-1 assessed as meropenem MIC at 59.20 uM measured after 20 hrs by broth microdilution assay (reference value: 24 mg/L)", "type": "functional", "conditions": "dose 59.2 µM"}, "[17]": {"test_system": "Acinetobacter baumannii", "assay": "Antibacterial activity against clinical isolate Acinetobacter baumannii IC 19/09 expressing blaNDM-1 co-expressing blaOXA-64 assessed as meropenem MIC at 29.60 uM measured after 20 hrs by broth microdilution assay (reference value: 12 mg/L)", "type": "functional", "conditions": "dose 29.6 µM"}, "[18]": {"test_system": "Acinetobacter baumannii", "assay": "Antibacterial activity against clinical isolate Acinetobacter baumannii IC 19/09 expressing blaNDM-1 co-expressing blaOXA-64 assessed as meropenem MIC at 59.20 uM measured after 20 hrs by broth microdilution assay (reference value: 24 mg/L)", "type": "functional", "conditions": "dose 59.2 µM"}, "[19]": {"test_system": "Escherichia coli", "assay": "Antibacterial activity against clinical isolate Escherichia coli ST1012/10 expressing blaNDM-1 co-expressing blaTEM-1/blaCTX-M-15/blaOXA-1 and blaOXA-2 assessed as meropenem MIC at 29.60 uM measured after 20 hrs by broth microdilution assay (reference value: 12 mg/L)", "type": "functional", "conditions": "dose 29.6 µM"}, "[20]": {"test_system": "Escherichia coli", "assay": "Antibacterial activity against clinical isolate Escherichia coli ST1012/10 expressing blaNDM-1 co-expressing blaTEM-1/blaCTX-M-15/blaOXA-1 and blaOXA-2 assessed as meropenem MIC at 59.20 uM measured after 20 hrs by broth microdilution assay (reference value: 24 mg/L)", "type": "functional", "conditions": "dose 59.2 µM"}, "[21]": {"test_system": "Klebsiella pneumoniae", "assay": "Antibacterial activity against clinical isolate Klebsiella pneumoniae ST1493/10 expressing blaNDM-1 co-expressing blaCMY-2like/blaTEM-1/blaCTX-M-15/blaSHV-28/blaOXA-1 and blaOXA-9 assessed as meropenem MIC at 29.60 uM measured after 20 hrs by broth microdilution assay (reference value: 12 mg/L)", "type": "functional", "conditions": "dose 29.6 µM"}, "[22]": {"test_system": "Klebsiella pneumoniae", "assay": "Antibacterial activity against clinical isolate Klebsiella pneumoniae ST1493/10 expressing blaNDM-1 co-expressing blaCMY-2like/blaTEM-1/blaCTX-M-15/blaSHV-28/blaOXA-1 and blaOXA-9 assessed as meropenem MIC at 59.20 uM measured after 20 hrs by broth microdilution assay (reference value: 24 mg/L)", "type": "functional", "conditions": "dose 59.2 µM"}, "[23]": {"test_system": "Klebsiella pneumoniae", "assay": "Antibacterial activity against clinical isolate Klebsiella pneumoniae 50/11 expressing blaNDM-1 co-expressing blaTEM-1/blaSHV-28/blaTEM-1/blaCTX-M-15 and blaOXA-1 assessed as meropenem MIC at 29.60 uM measured after 20 hrs by broth microdilution assay (reference value: 12 mg/L)", "type": "functional", "conditions": "dose 29.6 µM"}, "[24]": {"test_system": "Klebsiella pneumoniae", "assay": "Antibacterial activity against clinical isolate Klebsiella pneumoniae 50/11 expressing blaNDM-1 co-expressing blaTEM-1/blaSHV-28/blaTEM-1/blaCTX-M-15 and blaOXA-1 assessed as meropenem MIC at 59.20 uM measured after 20 hrs by broth microdilution assay (reference value: 24 mg/L)", "type": "functional", "conditions": "dose 59.2 µM"}, "[25]": {"test_system": "Klebsiella pneumoniae", "assay": "Antibacterial activity against clinical isolate Klebsiella pneumoniae 50/20 expressing blaNDM-5 co-expressing blaTEM-1 and blaSHV-1 assessed as meropenem MIC at 29.60 uM measured after 20 hrs by broth microdilution assay (reference value: 12 mg/L)", "type": "functional", "conditions": "dose 29.6 µM"}, "[26]": {"test_system": "Klebsiella pneumoniae", "assay": "Antibacterial activity against clinical isolate Klebsiella pneumoniae 50/20 expressing blaNDM-5 co-expressing blaTEM-1 and blaSHV-1 assessed as meropenem MIC at 59.20 uM measured after 20 hrs by broth microdilution assay (reference value: 24 mg/L)", "type": "functional", "conditions": "dose 59.2 µM"}, "[27]": {"test_system": "Escherichia coli", "assay": "Antibacterial activity against clinical isolate Escherichia coli 371/12 expressing blaNDM-7 co-expressing blaCTX-M-15 and blaOXA-1 assessed as meropenem MIC at 29.60 uM measured after 20 hrs by broth microdilution assay (reference value: 12 mg/L)", "type": "functional", "conditions": "dose 29.6 µM"}, "[28]": {"test_system": "Escherichia coli", "assay": "Antibacterial activity against clinical isolate Escherichia coli 371/12 expressing blaNDM-7 co-expressing blaCTX-M-15 and blaOXA-1 assessed as meropenem MIC at 59.20 uM measured after 20 hrs by broth microdilution assay (reference value: 24 mg/L)", "type": "functional", "conditions": "dose 59.2 µM"}, "[29]": {"test_system": "Klebsiella pneumoniae", "assay": "Antibacterial activity against clinical isolate Klebsiella pneumoniae ST23213/19 expressing blaNDM-1 co-expressing blaOXA-48/blaSHV-11/blaCTX-M-15 and blaOXA-1 assessed as meropenem MIC at 29.60 uM measured after 20 hrs by broth microdilution assay (reference value: 12 mg/L)", "type": "functional", "conditions": "dose 29.6 µM"}, "[30]": {"test_system": "Klebsiella pneumoniae", "assay": "Antibacterial activity against clinical isolate Klebsiella pneumoniae ST23213/19 expressing blaNDM-1 co-expressing blaOXA-48/blaSHV-11/blaCTX-M-15 and blaOXA-1 assessed as meropenem MIC at 59.20 uM measured after 20 hrs by broth microdilution assay (reference value: 24 mg/L)", "type": "functional", "conditions": "dose 59.2 µM"}, "[31]": {"test_system": "Klebsiella pneumoniae", "assay": "Antibacterial activity against clinical isolate Klebsiella pneumoniae 62/07 expressing blaVIM-19 co-expressing blaSHV-1/blaCTX-M-14 and blaCMY-4 assessed as meropenem MIC at 29.60 uM measured after 20 hrs by broth microdilution assay (reference value: 12 mg/L)", "type": "functional", "conditions": "dose 29.6 µM"}, "[32]": {"test_system": "Klebsiella pneumoniae", "assay": "Antibacterial activity against clinical isolate Klebsiella pneumoniae 62/07 expressing blaVIM-19 co-expressing blaSHV-1/blaCTX-M-14 and blaCMY-4 assessed as meropenem MIC at 59.20 uM measured after 20 hrs by broth microdilution assay (reference value: 24 mg/L)", "type": "functional", "conditions": "dose 59.2 µM"}}}
{"smiles": "O=C(O)[C@H](Cc1ccccc1)NS(=O)(=O)c1ccc(-c2ccccc2)cc1", "values": [{"measurement": "IC50", "setting": "[1]", "result": 266, "unit": "nM"}]}
{"smiles": "O=C(O)c1ccc2c(-c3ccccc3)ccc(NS(=O)(=O)c3ccccn3)c2n1", "values": [{"measurement": "IC50", "setting": "[2]", "result": 690, "unit": "nM"}, {"measurement": "inhibition", "setting": "[3]", "result": "> 90", "unit": "%"}, {"measurement": "IC50", "setting": "[4]", "result": 400, "unit": "nM"}, {"measurement": "IC50", "setting": "[5]", "result": 650, "unit": "nM"}, {"measurement": "inhibition", "setting": "[6]", "result": "< 5", "unit": "%"}, {"measurement": "inhibition", "setting": "[7]", "result": "< 5", "unit": "%"}, {"measurement": "Ki", "setting": "[8]", "result": 7750, "unit": "nM"}, {"measurement": "MIC", "setting": "[9]", "result": 0.5, "unit": "µg/mL"}, {"measurement": "MIC", "setting": "[10]", "result": "≤ 0.125", "unit": "µg/mL"}, {"measurement": "MIC", "setting": "[11]", "result": 0.25, "unit": "µg/mL"}, {"measurement": "MIC", "setting": "[12]", "result": "≤ 0.125", "unit": "µg/mL"}, {"measurement": "MIC", "setting": "[13]", "result": "≤ 0.125", "unit": "µg/mL"}, {"measurement": "MIC", "setting": "[14]", "result": "≤ 0.125", "unit": "µg/mL"}, {"measurement": "MIC", "setting": "[15]", "result": 1, "unit": "µg/mL"}, {"measurement": "MIC", "setting": "[16]", "result": "≤ 0.125", "unit": "µg/mL"}, {"measurement": "MIC", "setting": "[17]", "result": 16, "unit": "µg/mL"}, {"measurement": "MIC", "setting": "[18]", "result": 1, "unit": "µg/mL"}, {"measurement": "MIC", "setting": "[19]", "result": 0.5, "unit": "µg/mL"}, {"measurement": "MIC", "setting": "[20]", "result": "≤ 0.125", "unit": "µg/mL"}, {"measurement": "MIC", "setting": "[21]", "result": 4, "unit": "µg/mL"}, {"measurement": "MIC", "setting": "[22]", "result": 1, "unit": "µg/mL"}, {"measurement": "MIC", "setting": "[23]", "result": 0.5, "unit": "µg/mL"}, {"measurement": "MIC", "setting": "[24]", "result": 0.25, "unit": "µg/mL"}, {"measurement": "MIC", "setting": "[25]", "result": 2, "unit": "µg/mL"}, {"measurement": "MIC", "setting": "[26]", "result": "≤ 0.125", "unit": "µg/mL"}, {"measurement": "MIC", "setting": "[27]", "result": 32, "unit": "µg/mL"}, {"measurement": "MIC", "setting": "[28]", "result": "≤ 0.125", "unit": "µg/mL"}, {"measurement": "MIC", "setting": "[29]", "result": 16, "unit": "µg/mL"}, {"measurement": "MIC", "setting": "[30]", "result": 16, "unit": "µg/mL"}, {"measurement": "MIC", "setting": "[31]", "result": 8, "unit": "µg/mL"}, {"measurement": "MIC", "setting": "[32]", "result": 0.25, "unit": "µg/mL"}]}
